Consider four compounds from patent US20090069441A1, “Motuporamine Mimic Agents” (priority 2006, published 2009).

In assay [1] the test system is CHO cells. The settings on record: data originally reported in Ref, cited from earlier work; for IC50: 48 h incubation.
In assay [2] the test system is Drosophila imaginal leg discs. Nature of the assay: Imaginal disc eversion assay. As to conditions: Drosophila melanogaster, 15 hr incubation in Robb's medium. The class given is cell-based, Drosophila melanogaster. The method, then:
DihydroMotuporamine C, 4a, was used to develop an imaginal disc assay in Drosophila flies. The imaginal leg discs were collected by microscopic dissection from maggots. […] Inhibition was measured as failure of the disc to fully develop into a fly leg after 15 hr of incubation in Robb's growth medium. This presumably occurs by overactivation of Rho, an important signaling pathway in development. Hyper-stimulation of this pathway is sufficient to block development of the fly leg.
Fly Stocks: 20 female and 5 male wild type Oregon variant of Drosophila melanogaster interbred in blue food medium for 24 hours then flies are removed. Third instar wall-crawling larvae collected then dissected on the sixth day. Flies kept in 25° C. incubation chamber.
Blue Food Preparation: Standard corn meal medium heated then mixed completely with aqueous 1% Bromophenol Blue. The food medium is cooled for one day or more before use.
Dissection Medium: Ringer's Buffer with 10 uL 0.1% BSA. Ringer's Medium consists of 130 mM NaCl, 5 mM KCl, 1.5 mM CaCl2-2H2O, Stored at room temperature (23° C.), BSA added before dissection.
Cultivation Medium: Minimal Robb's Medium with 10 uL 0.1% BSA. Minimal Robb's Medium consists of 40 mM KCl, 0.4 mM KH2PO4, 40 mM NaCl, 0.4 mM NaH2PO4.7H2O, 1.2 mM MgSO4.7H2O, 1.2 mM MgCl2-6H2O, 1 mM CaCl2-2H2O, 10 mM Glucose, 0.2 mM L-asparagine, 4.0 mM L-glutamine, 0.16 mM Glycine, 0.64 mM L-leucine, 0.32 mM L-proline, 0.16 mM R-Serine, 0.64 mM L-valine. Stored at −25° C. One day before dissection, aliquot defrosted in 4° C. Add BSA then warmed to room temperature (23° C.) before dissection.
0.1% BSA: 0.1 g BSA fraction V (Sigma#A-9647) in 10 mL distilled H2O, Stored at 4° C.
Developmental Hormone: 1 mg 20-hydroxyecdysone (Sigma #H-5142) in 1 mL 100% Ethanol. Stored at −25° C. Before use, stock is diluted 10× (1 mL added to 9 mL of 100% Ethanol). 10 μL of diluted 20-hydroxyecdysone is added to culture.
Dissection Procedures: Third instar larvae are removed from cultivation bottle with a wetted brush and washed in dH2O to remove food medium clinging to larvae. The cleaned larvae are dissected in Ringer's Medium using forceps. The imaginal discs are washed in fresh Ringer's Medium, and then cultivated with 1 mL of Robb's Medium in 12-well culture plate. Each culture well should have 30˜40 imaginal discs.
Culturing Procedures: In a larger container, place the 12-well culture plate on a moist towel, then seal the large container. Cultivate at 25° C. for 15 hours. Evaluation: Three categories will be used to grade the eversion of each imaginal disc. Full Eversion—the leg is fully extended from the disc. Partial Eversion—the leg is protruding from the epithelial. No Eversion—no sign of any protrusion.

Assay [3] has as its system CHO-MG cells. As to conditions: 48 h incubation; data originally reported in Ref; cited from earlier work.
Assay [4] relates to L1210 cells. Put plainly: Cytotoxicity (cell growth, MTT) in L1210 cells. The format is cell-based, mouse. From the text:
(§1) In terms of Table 1, L1210 cells are mouse leukemia cells and are the gold standard in terms of evaluating polyamine cytotoxicity data due to a plethora of prior data in this cell line for other polyamine structures. Clearly 7a was similar in all respects to 4a (Table 1). […] The lower the Ki value, the higher the affinity of the drug for the polyamine transporter (PAT) on the cell surface. Chinese hamster ovary (CHO) cells and a mutant line without an active PAT (CHO-MG) also evaluated the PAT selectivity of these drugs.
Biological Evaluation. Once synthesized, the conjugates were screened for cytotoxicity in L1210, CHO and CHO-MG cells. L1210 (mouse leukemia) cells were selected to enable comparisons with the published IC50 and Ki values for a variety of polyamine substrates. Chinese Hamster Ovary (CHO) cells were chosen along with a mutant PAT deficient cell line (CHO-MG) in order to comment on selective transport via the PAT (Wang et al, J. Med. Chem. 2003, 46, 2663-2671; Wang et al, J. Med. Chem. 2003, 46, 2672-2682; Wang et al., J. Med. Chem. 2003, 46, 5129-5138; Delcros et al., J. Med. Chem., 2002, 45, 5098-5111).
(§2) L1210 IC50 and Ki studies. […] The Ki values in Table 3 were determined for [^14C]spermidine uptake and reflect the affinity of the polyamine derivative for the polyamine transporter on the cell surface. With both parameters, one can determine whether high affinity for the transporter (e.g., low Ki value) translated into high cytotoxicity (e.g., low IC50 value), etc.
(§3) Biological studies. Murine leukemia cells (L1210), CHO and CHO-MG cells were grown in RPMI medium supplemented with 10% fetal calf serum, glutamine (2 mM), penicillin (100 U/mL), streptomycin (50 μg/mL). L-Proline (2 μg/mL) was added to the culture medium for CHO-MG cells. Cells were grown at 37° C. under a humidified 5% CO2 atmosphere. Aminoguanidine (AG, 2 mM) was added to the culture medium to prevent oxidation of the drugs by the enzyme (bovine serum amine oxidase) present in calf serum. Trypan blue staining was used to determine cell viability before the initiation of a cytotoxicity experiment. Cells in early to mid log-phase were used. IC50 determinations. Cell growth was assayed in sterile 96-well microtiter plates (Becton-Dickinson, Oxnard, Calif., USA). L1210 cells were seeded at 5e^4 cells/mL of medium (100 μL/well). CHO and CHO-MG cells were plated at 2e^3 cells/mL. Drug solutions (10 μL per well) of appropriate concentration were added at the time of seeding for L1210 cells and after an overnight incubation for the CHO cell lines. After exposure to the drug for 48 hr, cell growth was determined by measuring formazan formation from 3-(4,5-dimethylthiazol-2-yl)2,5-diphenyltetrazolium using a Titertek Multiskan MCC/340 microplate reader for absorbance (540 nm) measurements (Mosmann, T., J. Immunol. Methods 1983, 65, 55-63).

For assay [5], the target named is polyamine transporter (PAT). The settings on record: data originally reported in Ref; read-out: L1210 Ki value; cited from earlier work.
In assay [6] the test system is L1210 cells. As to conditions: 48 h incubation; data originally reported in Ref; cited from earlier work.
Assay [7] has as its system CHO-MG cells. Nature of the assay: Cytotoxicity in PAT-deficient CHO-MG cells. The format is cell-based, Chinese hamster.
Description: as §1
(§4) CHO and CHO-MG studies. Chinese hamster ovary (CHO) cells were chosen along with a mutant cell line (CHO-MG) in order to comment on how the synthetic conjugates gain access to cells. The CHO-MG cell line is polyamine-transport deficient and was isolated after selection for growth resistance to methylglyoxalbis(guanylhydrazone), MGBG, (CH3C[═N—NHC(═NH)NH2]CH[═N—NHC(═NH)NH2]) using a single-step selection after mutagenesis with ethylmethanesulfonate (Mandel et al., J. Cell. Physiol., 1978, 97, 335-344; Byers et al., Biochem. J. 1989, 263, 745-752).
For the purposes of this study, the CHO-MG cell line represents cells with no PAT activity and provided a model for alternative modes of entry or action, which are independent of PAT. These alternative modes of entry include passive diffusion or utilization of another transporter. The alternative modes of action may also include interactions on the outer surface of the plasma membrane or other membrane receptor interactions.
as §3, with “Aminoguanidine (AG, 2 mM) was added to the culture medium to prevent oxidation of the drugs by the enzyme (bovine serum amine oxidase) present in calf serum.” left out

The test system of assay [8] is polyamine transporter (PAT). Put plainly: Ki for inhibition of [14C]spermidine uptake in L1210 cells. The settings on record: [14C]spermidine uptake, 10-min, 1 μM substrate; read-out: L1210 Ki values. The class given is cell-based, mouse.
Description: as §1, §2
Ki procedure. The ability of the conjugates to interact with the polyamine transport system was determined by measuring competition by the conjugates against radiolabeled spermidine uptake in L1210 cells. Initially, the Km value of spermidine transport was determined as previously described (Clément et al., Biochem. J. 1995, 312, 933-938). The ability of conjugates to compete for [^14C]spermidine uptake were determined in L1210 cells by a 10-min uptake assay in the presence of increasing concentrations of competitor, using 1 μM [^14C]spermidine as substrate. Ki values for inhibition of spermidine uptake were determined using the Cheng-Prusoff equation (Cheng and Prusoff, Biochem. Pharmacol. 1973, 22, 3099-3108) from the IC50 value derived by iterative curve fitting of the sigmoidal equation describing the velocity of spermidine uptake in the presence of the respective competitor (Torossian et al., Biochem. J., 1996, 319, 21-26). L1210 cells were grown and maintained according to established procedures (Bergeron et al., J. Med. Chem. 2000, 43, 224-235) and were washed twice in HBSS prior to the transport assay.

Assay [9] concerns CHO cells. Put plainly: Cytotoxicity in CHO cells. The class given is cell-based, Chinese hamster.
Description: as §1, §4
In contrast, the parent CHO cell line represents a cell type with high PAT activity. Comparison of conjugate cytotoxicity in these two CHO lines provided an important screen to detect selective conjugate delivery via the PAT. For example, a conjugate with high utilization of the polyamine transporter would be very toxic to CHO cells, but less so to CHO-MG cells. In short, highly-selective PAT ligands should give high (CHO-MG/CHO) IC50 ratios.
as §3, with “Aminoguanidine (AG, 2 mM) was added to the culture medium to prevent oxidation of the drugs by the enzyme (bovine serum amine oxidase) present in calf serum.” left out

By inhibition is commonly meant the share of the control response that was lost under treatment. Lower therefore signals a weak effect. As a reminder, the Ki is a dissociation constant, usually derived from enzyme kinetics or from competition with a known ligand.

Like-named read-outs stand apart in the source and are kept apart here.

Regarding `CCN(CCCCNCCCCN)Cc1c2ccccc2cc2ccccc12` [Compound 7b, N-(4-Amino-butyl)-N′-anthracen-9-ylmethyl-N′-ethyl-butane-1,4-diamine], the IC50 with CHO cells [1] is 22.2 µM; with CHO-MG cells [3], 21.9 µM; in the assay on L1210 cells [4] (Mus musculus, L1210 experiments, no added SPD, read-out: L1210 IC50) it was 22.2 µM. The “IC50 Ratio (CHO-MG/CHO), a measure of PAT selectivity” value (“IC50 Ratio … of PAT selectivity” for short) with CHO cells [1] was 1. This compound came in with an inhibition at 18 µM in assay [2] of 8%. For the same compound, the Ki in assay [5] was 24.4 µM.
In the case of `NCCCNCCCNCc1c2ccccc2cc2ccccc12` [Compound 6a], the IC50 in the assay on CHO cells [1] is 1.9 µM; in the assay on L1210 cells [6] it was 1.8 µM; in the assay with CHO-MG cells [3] it was 3.4 µM. Further, the “IC50 Ratio … of PAT selectivity” value in the assay with CHO cells [1] is reported as 1.8. Moreover, at 18 µM the inhibition in [2] was 60%. For the same compound, in assay [5], the Ki was 33.4 µM.
As for `CNCCCCNCCCCNCc1c2ccccc2cc2ccccc12` [Compound 28, N-Anthracen-9-ylmethyl-N′-(4-methylamino-butyl)-butane-1,4-diaine], the IC50 in the assay with CHO-MG cells [7] (absence of AG, 48 h, read-out: CHO-MG IC50 w/o AG) is 56.2 µM; in the assay on CHO-MG cells [7] (in the presence of AG, 48 h at 37° C., read-out: CHO-MG IC50), 60 µM; with CHO cells [9] (absence of AG, 48 h, read-out: CHO IC50 w/o AG), 4.89 µM; with CHO cells [9] (in the presence of AG, 48 h at 37° C., read-out: CHO IC50) it was 4.88 µM; in the assay with L1210 cells [4] (L1210 experiments, no added SPD, read-out: L1210 IC50) it was 0.4 µM; with L1210 cells [4] (in the presence of AG, 48 h at 37° C., read-out: L1210 IC50), 0.4 µM. Moreover, the IC50 in the assay with L1210 cells [4] (spermidine rescue, excess SPD (200 μM), read-out: L1210 IC50 in the presence of added SPD) worked out at 1.38 µM. In addition, the Ki in assay [8] was determined as 8.2 µM. Moreover, in the assay with CHO cells [9] (absence of AG), the “CHOMG/CHO IC50 ratio in the absence of AG” value is 11.5. Moreover, in the assay with CHO cells [9] (absence of AG), the “IC50 Ratio (CHO-MG/CHO) w/o AG” value is reported as 11.5. Moreover, in the assay on CHO cells [9] (in the presence of AG), the “IC50 Ratio … of PAT selectivity” value is reported as 12.3. Besides, in the assay on CHO cells [9] (with AG), the “IC50 Ratio (CHO-MG/CHO) with AG” value came out at 12.3.
For `NCCCNCCCN1CCCCCCCCCCCCCC1` [Compound 4a, Dihydromotuporamine C, reference compound], the IC50 is 10.5 µM in the assay with CHO cells [1], 3 µM in the assay with L1210 cells [6] and 10 µM in the assay with CHO-MG cells [3]. In addition, the “IC50 Ratio … of PAT selectivity” value in the assay on CHO cells [1] is listed as 1. In [5], the Ki was 9.9 µM.
